Results from patent US20060246026A1, “Barrier formulation comprising a silicone based emulsion” (priority 2003, published 2006).

Tested on: bacterial counts on the fingertips
Test: prEN 12791 in vivo anti-microbial activity on fingertips of volunteers
Design: species or system human
Conditions: after 3 minutes (immediate); 20 volunteers; 60% propanol compared with the formulation (p<0.0001)
Description: The anti-microbial efficacy of the formulation of Example 5 was assessed in the clinical setting. The acceptability of the formulation of Example 5 by health care workers (HCW) was investigated. In vitro and in vivo assessment of the formulation was undertaken in accordance with European standards currently used for assessing hygienic and surgical rubs and washes (prEN 12054 and prEN 12791).
prEN 12054 and prEN 12791 (European Standards for Assessing Hygienic and Surgical Hand Rubs and Washes) • In vitro antibacterial efficacy of the formulation was assessed for anti-microbial activity against Staphylococcus aureus ATCC 6538, Enterococcus hirae ATCC 10541, Pseudomonas aeruginosa ATCC 15442 and Escherichia coli NCTC 10536 in accordance with prEN 12054. In vivo anti-microbial activity of the formulation was compared with 60% (v/v) […] (gold standard) in accordance with […]. Twenty laboratory volunteers participated in the assessment of the formulation in accordance to prEN 12791.

SMILES: CCCO [60% propanol, propanol]
- Mean reduction factor in the bacterial counts on the fingertips, immediate: significantly higher mean reduction factor
